Measurements from ChEMBL document CHEMBL1201862, “PubChem BioAssay data set” (2004).
Active and inactive are the calls of the source.

Assays:
Mucolipin-3 = target: T1, Mucolipin-3 (Homo sapiens, UniProt Q8TDD5); assay: Dose response cell-based high-throughput screening assay for agonists of the transient receptor potential channel ML3 (TRPML3). [Related pubchem assays: 1526, 1424, 1448 ]; format: functional
T1 sequence (Q8TDD5 whole entry): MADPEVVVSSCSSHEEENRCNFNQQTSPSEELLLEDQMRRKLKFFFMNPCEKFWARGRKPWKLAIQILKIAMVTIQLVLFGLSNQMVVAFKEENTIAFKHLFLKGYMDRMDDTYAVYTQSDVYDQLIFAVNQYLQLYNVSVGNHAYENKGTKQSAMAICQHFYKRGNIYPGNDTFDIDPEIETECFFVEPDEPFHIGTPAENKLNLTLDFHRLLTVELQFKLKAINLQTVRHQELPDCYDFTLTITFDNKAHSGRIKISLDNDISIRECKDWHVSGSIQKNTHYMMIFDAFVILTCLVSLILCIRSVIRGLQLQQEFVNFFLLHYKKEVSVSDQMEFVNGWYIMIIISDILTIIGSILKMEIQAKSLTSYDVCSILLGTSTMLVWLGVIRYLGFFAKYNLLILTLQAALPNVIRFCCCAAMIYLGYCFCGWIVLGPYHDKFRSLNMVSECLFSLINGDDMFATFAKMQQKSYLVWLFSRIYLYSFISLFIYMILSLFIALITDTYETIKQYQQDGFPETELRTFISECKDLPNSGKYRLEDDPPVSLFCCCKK

[1] = target: T2, Calpain-2 catalytic subunit (Sus scrofa, UniProt P43367); assay: m-calpain protease blockers, concentration series – biochemical, fluorogenic peptide substrate, dose response (AID 1420); format: functional
T2 sequence (P43367 whole entry): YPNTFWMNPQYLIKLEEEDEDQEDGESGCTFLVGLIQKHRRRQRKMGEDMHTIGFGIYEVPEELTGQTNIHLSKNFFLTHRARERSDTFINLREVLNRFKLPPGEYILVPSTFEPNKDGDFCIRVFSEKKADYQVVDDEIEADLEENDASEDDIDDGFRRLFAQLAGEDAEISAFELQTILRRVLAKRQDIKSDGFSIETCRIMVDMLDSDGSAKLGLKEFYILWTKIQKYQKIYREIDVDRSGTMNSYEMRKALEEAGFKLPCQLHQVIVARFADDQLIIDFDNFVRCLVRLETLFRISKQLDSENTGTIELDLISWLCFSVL

Ion channel NompC = Ion channel NompC (Danio rerio, UniProt Q7T1G6); assay: Fluorescence counterscreen assay for TRPML3 agonists: dose response cell-based high-throughput screening assay to identify agonists of the transient receptor potential channel N1 (TRPN1). [Related pubchem assays: 1526, 1424, 1448 ]; format: functional
[2] = viability of PTEN-deleted HCT116 cells – cell-based, HCT116 PTEN knockout, dose response (AID 1047); format: functional;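 further: HCT116 colon tumor cells with PTEN knocked out; cells exposed to compound for 60 hours before readout; potency for loss of cell viability measured by luminescence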
[3] = viability of HCT116 lacking mutant beta-catenin – cell-based, human colon tumor, dose response (AID 1045); format: functional;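 further: HCT116 colon tumor cells with beta catenin knocked out; cells exposed to compound for 60 hours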
[4] = target: Voltage-dependent T-type calcium channel subunit alpha-1H (Homo sapiens, UniProt O95180); format: functional;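 further: channel activity triggered by adding a high calcium stimulation buffer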
[5] = target: G-protein coupled receptor 55 (Homo sapiens, UniProt Q9Y2T6); assay: inhibition of LPI-stimulated GPR55 beta-arrestin translocation – imaging, U2OS, beta-arrestin-GFP, LPI agonist, primary screen (AID 2013); format: functional;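 further: antagonist potency measured as reduced agonist-driven arrestin aggregation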
cells [6] = assay: cells
cells [7] = format: functional, cell-based
cells [8] = format: functional, cell-based; remark: listed apart in the source
[9] = viability of uninfected HEp-2 cells – cell-based, HTS, cytotoxicity control for RSV inhibitor project, dose response (AID 2410); format: functional; conditions: human respiratory syncytial virus
[10] = Luminescence Cell-Based Dose Retest to Confirm Inhibitors of Cancer Stem Cells. [Related pubchem assays (depositor defined):AID2717, AID2721]; format: functional; conditions: Homo sapiens
Vero [11] = assay: cells; format: functional, cell-based; conditions: Chlorocebus sabaeus
Vero [12] = assay: cells; format: functional; conditions: Chlorocebus sabaeus
fMet-Leu-Phe receptor = target: T3, fMet-Leu-Phe receptor (Homo sapiens, UniProt P21462); assay: formyl peptide receptor binders – dose response (AID 519); format: functional
T3 sequence (P21462 whole entry): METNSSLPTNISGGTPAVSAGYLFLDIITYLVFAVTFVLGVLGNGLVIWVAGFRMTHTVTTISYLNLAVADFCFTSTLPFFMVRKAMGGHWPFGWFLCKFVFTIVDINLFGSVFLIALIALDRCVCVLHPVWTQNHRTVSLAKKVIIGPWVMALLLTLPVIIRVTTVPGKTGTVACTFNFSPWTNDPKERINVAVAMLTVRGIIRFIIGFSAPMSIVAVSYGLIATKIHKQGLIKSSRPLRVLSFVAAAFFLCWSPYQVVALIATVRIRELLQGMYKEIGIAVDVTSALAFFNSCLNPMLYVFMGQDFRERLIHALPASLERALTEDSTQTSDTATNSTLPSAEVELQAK

[13] = THP-1 cell cytotoxicity, dose response, cytotoxicity control for non-replicating M. tuberculosis project (AID 489025); format: functional
[14] = HepG2 cell cytotoxicity, dose response, cytotoxicity control for non-replicating M. tuberculosis project (AID 489018); format: functional; conditions: Mycobacterium tuberculosis
[15] = Vero E6 cell cytotoxicity, dose response, cytotoxicity control for non-replicating M. tuberculosis project, secondary assay (AID 492998); format: functional, VeroE6; conditions: Vero C1008
cells [16] = format: functional
H9c2 = assay: cells; format: functional, cell-based; conditions: Rattus norvegicus, H9c2, Myocardium;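 further: confirmatory concentration-response retest of ultra-high-throughput screening hits for modulation of myocardial damage; cell death induced by hydrogen peroxide oxidative stress; compound pretreatment for 60 min then peroxide exposure for 2 h; potency is for protecting the cells against peroxide damage rather than for killing them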
[17] = Luminescence Cell-Based Dose Confirmation HTS to Identify Activators of 5'UTR Stem-Loop Driven Alpha-Synuclein mRNA Translation in H4 Neuroglioblastoma Cells. [Related pubchem assays: 1829 (Project Summary), 1814 (Primary HTS)]; format: functional
[18] = Luminescence Cell-Based Dose Response HTS to Identify Activators of Luciferase Translation or Activity in H4 […] Cells. [Related pubchem assays: 1829 (Project Summary), 1814 (Primary HTS)]; format: functional
H4 = assay: Luminescence Cell-Based Dose Response HTS to Identify Activators of 5'UTR Stem-Loop Driven Prion Protein mRNA Translation in H4 Neuroglioblastoma Cells. [Related pubchem assays: 1829 (Project Summary), 1814 (Primary HTS)]; format: functional; conditions: Homo sapiens
Leucine aminopeptidase = target: T4, Leucine aminopeptidase (Plasmodium falciparum 3D7, UniProt Q8IL11); assay: P. falciparum M17LAP inhibitors, primary screen, biochemical, fluorogenic H-Leu-NHMec substrate, 1536-well (AID 1619); format: functional
T4 sequence (Q8IL11 whole entry): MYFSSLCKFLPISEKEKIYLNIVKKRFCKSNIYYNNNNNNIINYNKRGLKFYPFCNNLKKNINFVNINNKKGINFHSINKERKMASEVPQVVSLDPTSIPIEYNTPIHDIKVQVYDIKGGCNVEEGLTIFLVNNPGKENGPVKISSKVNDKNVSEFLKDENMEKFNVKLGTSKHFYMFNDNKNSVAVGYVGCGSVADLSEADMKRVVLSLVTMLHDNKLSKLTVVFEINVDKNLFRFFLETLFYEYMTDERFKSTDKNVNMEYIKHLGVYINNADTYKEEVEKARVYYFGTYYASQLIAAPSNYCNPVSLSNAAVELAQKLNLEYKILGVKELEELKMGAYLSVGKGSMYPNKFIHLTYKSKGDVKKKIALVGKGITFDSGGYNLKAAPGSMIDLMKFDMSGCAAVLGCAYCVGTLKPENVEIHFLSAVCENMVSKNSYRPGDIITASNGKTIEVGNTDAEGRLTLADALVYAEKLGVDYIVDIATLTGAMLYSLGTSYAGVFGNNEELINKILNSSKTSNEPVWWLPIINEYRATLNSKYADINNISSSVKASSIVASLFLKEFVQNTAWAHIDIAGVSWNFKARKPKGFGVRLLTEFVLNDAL

[19] = target: T5, RNA-binding protein pos-1 (Caenorhabditis elegans, UniProt G5EF15); assay: disruptors of C. elegans POS-1 RNA interaction – biochemical, fluorescence polarization, dose response (AID 1964);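 further: purified POS-1 fused to maltose binding protein made in E. coli; potency of compounds blocking POS-1 binding to fluorescent RNA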
T5 sequence (G5EF15 whole entry): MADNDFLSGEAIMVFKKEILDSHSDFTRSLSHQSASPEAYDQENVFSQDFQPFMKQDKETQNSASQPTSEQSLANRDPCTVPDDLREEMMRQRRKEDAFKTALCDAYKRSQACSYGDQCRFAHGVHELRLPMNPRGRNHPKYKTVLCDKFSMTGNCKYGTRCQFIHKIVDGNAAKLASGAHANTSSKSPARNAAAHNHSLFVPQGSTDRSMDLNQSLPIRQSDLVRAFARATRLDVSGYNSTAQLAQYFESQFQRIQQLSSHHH

[20] = target: T6, Zinc finger protein mex-5 (Caenorhabditis elegans, UniProt Q9XUB2); assay: potency of MEX-5 RNA-binding blockers – biochemical, C. elegans, fluorescence polarization, dose response (AID 1960)
T6 sequence (Q9XUB2 whole entry): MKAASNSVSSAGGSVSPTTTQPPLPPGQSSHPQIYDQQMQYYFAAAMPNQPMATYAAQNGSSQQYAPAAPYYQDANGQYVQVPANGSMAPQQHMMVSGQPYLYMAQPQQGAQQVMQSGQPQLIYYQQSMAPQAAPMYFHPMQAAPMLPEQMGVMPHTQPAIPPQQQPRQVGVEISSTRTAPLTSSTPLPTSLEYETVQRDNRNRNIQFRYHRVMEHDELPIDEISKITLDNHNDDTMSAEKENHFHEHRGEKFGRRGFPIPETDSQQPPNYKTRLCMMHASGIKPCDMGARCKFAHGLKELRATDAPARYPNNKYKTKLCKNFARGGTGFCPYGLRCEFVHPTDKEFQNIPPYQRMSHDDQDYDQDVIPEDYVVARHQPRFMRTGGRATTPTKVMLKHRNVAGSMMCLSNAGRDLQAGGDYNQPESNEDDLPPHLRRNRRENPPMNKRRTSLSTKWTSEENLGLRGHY

Estrogen receptor = target: T7, Estrogen receptor (Homo sapiens, UniProt P03372);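 further: potency for inhibiting coactivator peptide recruitment to the receptor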
T7 sequence (P03372 whole entry): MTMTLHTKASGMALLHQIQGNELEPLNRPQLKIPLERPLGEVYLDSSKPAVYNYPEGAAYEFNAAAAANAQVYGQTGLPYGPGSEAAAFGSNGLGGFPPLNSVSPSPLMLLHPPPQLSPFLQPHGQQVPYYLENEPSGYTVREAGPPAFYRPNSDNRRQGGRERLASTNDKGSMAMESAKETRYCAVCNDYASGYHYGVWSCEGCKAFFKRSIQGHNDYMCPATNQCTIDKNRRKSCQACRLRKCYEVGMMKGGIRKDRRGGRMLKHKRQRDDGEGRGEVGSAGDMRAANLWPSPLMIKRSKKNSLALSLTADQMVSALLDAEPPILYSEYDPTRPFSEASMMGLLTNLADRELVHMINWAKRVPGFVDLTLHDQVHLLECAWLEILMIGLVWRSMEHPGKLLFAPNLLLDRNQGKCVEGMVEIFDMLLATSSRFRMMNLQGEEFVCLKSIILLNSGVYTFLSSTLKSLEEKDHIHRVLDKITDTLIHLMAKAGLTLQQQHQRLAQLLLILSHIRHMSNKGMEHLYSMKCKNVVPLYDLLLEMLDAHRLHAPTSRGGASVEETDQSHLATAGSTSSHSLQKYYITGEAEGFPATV
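Wherever AC50 is given: cells exposed to compound for roughly 70 hours or longer before luminescence read.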

Sequence of Voltage-dependent T-type calcium channel subunit alpha-1H (O95180 whole entry): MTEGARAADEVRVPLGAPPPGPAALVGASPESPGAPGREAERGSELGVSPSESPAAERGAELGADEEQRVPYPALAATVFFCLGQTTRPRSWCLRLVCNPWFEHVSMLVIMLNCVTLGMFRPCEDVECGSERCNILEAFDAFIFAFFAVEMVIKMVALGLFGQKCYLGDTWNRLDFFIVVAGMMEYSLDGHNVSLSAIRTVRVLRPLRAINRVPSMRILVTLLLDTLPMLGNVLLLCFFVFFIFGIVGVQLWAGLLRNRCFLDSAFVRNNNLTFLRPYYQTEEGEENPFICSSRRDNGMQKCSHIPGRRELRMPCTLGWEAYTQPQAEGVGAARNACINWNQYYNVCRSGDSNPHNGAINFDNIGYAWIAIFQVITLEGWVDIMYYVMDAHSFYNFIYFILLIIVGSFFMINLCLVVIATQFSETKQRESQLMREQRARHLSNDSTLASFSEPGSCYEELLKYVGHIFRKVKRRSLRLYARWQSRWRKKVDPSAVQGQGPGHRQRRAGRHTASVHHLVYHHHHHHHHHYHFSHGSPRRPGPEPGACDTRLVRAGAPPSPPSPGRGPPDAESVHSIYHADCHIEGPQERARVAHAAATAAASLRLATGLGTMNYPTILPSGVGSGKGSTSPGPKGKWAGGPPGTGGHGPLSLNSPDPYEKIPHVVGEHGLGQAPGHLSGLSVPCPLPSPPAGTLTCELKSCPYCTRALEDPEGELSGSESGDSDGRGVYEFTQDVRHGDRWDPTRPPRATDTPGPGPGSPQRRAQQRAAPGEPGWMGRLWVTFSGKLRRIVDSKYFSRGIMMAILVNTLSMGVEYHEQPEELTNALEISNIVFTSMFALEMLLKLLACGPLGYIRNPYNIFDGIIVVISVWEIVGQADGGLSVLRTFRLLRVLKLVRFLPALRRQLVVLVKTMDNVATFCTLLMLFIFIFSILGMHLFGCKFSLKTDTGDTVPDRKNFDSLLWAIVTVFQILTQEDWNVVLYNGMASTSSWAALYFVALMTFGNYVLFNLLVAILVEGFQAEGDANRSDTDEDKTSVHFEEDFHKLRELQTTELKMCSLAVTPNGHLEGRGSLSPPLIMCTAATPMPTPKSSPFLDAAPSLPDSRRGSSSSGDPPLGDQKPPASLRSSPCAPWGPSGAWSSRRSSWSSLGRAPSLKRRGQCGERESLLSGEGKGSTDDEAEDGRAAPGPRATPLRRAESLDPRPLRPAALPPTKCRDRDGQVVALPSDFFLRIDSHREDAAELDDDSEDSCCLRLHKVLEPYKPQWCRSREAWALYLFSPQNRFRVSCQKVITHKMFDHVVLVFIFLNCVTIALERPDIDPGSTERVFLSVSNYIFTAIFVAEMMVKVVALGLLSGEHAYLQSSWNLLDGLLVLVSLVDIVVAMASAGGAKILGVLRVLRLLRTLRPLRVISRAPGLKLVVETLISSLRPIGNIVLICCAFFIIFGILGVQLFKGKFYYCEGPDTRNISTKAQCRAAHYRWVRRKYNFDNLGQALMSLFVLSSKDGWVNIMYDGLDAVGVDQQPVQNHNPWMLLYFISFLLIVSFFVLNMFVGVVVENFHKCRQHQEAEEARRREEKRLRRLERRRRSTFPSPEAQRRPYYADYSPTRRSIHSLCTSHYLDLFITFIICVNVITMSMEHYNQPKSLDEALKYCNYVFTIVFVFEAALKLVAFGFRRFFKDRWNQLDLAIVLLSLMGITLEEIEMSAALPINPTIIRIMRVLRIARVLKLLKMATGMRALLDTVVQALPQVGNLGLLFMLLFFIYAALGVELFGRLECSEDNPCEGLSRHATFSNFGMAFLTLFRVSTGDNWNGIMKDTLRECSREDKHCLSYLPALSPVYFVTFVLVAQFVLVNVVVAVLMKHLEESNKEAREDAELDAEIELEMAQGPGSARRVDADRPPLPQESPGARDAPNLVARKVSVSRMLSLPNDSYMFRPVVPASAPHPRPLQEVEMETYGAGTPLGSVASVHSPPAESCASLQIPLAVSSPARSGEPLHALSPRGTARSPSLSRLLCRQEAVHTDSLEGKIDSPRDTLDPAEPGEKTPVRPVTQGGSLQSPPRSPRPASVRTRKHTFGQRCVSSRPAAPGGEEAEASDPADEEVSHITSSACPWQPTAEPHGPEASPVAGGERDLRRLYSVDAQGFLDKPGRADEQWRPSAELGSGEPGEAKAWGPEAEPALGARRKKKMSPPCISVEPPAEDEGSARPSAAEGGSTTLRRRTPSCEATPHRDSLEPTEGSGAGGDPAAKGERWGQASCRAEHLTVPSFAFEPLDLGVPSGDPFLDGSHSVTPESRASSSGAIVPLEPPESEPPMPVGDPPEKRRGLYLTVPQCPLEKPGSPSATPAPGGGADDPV
Sequence of Ion channel NompC (Q7T1G6 whole entry): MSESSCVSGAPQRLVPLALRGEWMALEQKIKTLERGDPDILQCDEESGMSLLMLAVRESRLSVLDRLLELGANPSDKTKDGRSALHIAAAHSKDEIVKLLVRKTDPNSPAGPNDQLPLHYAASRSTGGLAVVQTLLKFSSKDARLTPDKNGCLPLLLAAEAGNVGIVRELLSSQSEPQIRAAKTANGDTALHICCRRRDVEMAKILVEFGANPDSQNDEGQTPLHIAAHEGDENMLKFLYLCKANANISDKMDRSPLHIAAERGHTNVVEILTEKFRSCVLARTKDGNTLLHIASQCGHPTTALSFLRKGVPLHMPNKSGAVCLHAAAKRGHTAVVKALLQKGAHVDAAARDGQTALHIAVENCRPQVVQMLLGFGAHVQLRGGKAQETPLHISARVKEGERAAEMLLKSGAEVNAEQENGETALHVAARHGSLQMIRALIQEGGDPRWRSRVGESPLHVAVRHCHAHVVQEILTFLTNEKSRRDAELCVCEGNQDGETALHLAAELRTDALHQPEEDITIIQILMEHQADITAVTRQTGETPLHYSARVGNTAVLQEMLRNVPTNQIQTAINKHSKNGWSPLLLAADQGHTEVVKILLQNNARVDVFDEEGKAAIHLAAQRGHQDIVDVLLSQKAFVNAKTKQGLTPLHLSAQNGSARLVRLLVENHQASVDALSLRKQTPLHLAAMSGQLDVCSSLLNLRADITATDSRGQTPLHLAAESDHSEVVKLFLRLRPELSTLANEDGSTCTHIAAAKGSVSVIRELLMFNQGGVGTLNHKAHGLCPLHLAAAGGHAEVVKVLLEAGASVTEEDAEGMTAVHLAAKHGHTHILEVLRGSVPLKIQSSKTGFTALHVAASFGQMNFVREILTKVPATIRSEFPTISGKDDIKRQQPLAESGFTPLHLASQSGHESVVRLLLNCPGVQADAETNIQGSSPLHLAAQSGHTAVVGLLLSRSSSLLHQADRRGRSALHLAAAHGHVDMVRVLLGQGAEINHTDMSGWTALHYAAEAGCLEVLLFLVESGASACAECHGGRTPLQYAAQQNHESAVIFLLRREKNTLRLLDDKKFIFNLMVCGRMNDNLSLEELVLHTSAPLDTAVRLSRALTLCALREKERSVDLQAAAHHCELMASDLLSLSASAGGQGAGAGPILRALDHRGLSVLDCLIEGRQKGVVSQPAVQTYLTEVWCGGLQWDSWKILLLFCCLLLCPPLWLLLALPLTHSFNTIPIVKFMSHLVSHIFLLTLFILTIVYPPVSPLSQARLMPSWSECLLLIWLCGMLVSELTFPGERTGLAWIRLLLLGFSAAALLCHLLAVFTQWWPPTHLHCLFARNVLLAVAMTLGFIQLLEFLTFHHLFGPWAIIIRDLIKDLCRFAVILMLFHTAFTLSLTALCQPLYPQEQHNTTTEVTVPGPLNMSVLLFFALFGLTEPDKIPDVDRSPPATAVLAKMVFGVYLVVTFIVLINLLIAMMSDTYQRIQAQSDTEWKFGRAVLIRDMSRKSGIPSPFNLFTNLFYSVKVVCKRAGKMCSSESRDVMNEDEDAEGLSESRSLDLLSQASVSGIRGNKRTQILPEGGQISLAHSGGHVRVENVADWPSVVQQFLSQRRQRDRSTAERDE
Sequence of G-protein coupled receptor 55 (Q9Y2T6 whole entry): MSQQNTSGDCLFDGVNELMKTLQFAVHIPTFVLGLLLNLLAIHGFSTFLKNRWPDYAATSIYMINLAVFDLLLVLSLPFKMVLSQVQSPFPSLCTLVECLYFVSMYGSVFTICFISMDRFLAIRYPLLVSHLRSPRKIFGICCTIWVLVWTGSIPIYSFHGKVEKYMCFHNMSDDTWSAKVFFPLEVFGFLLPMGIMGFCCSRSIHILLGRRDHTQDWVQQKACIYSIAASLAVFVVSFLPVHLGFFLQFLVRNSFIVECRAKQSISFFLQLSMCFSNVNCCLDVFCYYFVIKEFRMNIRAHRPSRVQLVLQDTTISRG

Cc1cc(C(C)(C)C)oc1C(=O)N(CC(=O)NC1CCCC1)Cc1ccccc1Cl
EC50 (Mucolipin-3): > 29.9 µM (not active) | IC50 [1]: 2.28 µM (not active) | EC50 (Ion channel NompC): > 29.9 µM (not active)

CC[n+]1c(/C=C/C=C/N(C(C)=O)c2ccccc2)sc2ccccc21
EC50 [2]: 20.8 µM (active) | EC50 [3]: 19.7 µM (active) | EC50 [4]: 2.21 µM (active)

CCc1ccccc1/N=C1/S/C(=C/c2ccccc2OCC(=O)N2CCOCC2)C(=O)N1C
IC50 [5]: 2.71 µM (active)

O=C(c1ccccc1F)N(NC(=O)C(O)(c1ccccc1)c1ccccc1)c1ccccc1
EC50 (Mucolipin-3): 10.4 µM (not active) | EC50 (Ion channel NompC): > 29.9 µM (not active)

Cc1csc(NC(=O)CSc2nc3ccccc3s2)n1
EC50 [4]: 7.68 µM (active)

CC(C)Oc1ccc(/C=N/NC(=O)C(CSCc2ccccc2)NC(=O)c2ccc([N+](=O)[O-])cc2)cc1 (stereo not given)
EC50 (Mucolipin-3): 0.342 µM (active) | EC50 (Ion channel NompC): > 29.9 µM (not active)

O=C(N=Nc1c(O)[nH]c2ccc([N+](=O)[O-])cc12)c1ccccc1[N+](=O)[O-]
IC50 (cells [6]): 26.2 µM (active)

CCN(CCCNC(=O)CCc1nc(-c2ccc(OC)cc2)no1)c1cccc(C)c1
EC50 (cells [7]): > 350 µM (not active) | EC50 (cells [8]): > 350 µM (not active) | EC50 [4]: 4.41 µM (active)

CCN(c1ccccc1)S(=O)(=O)c1ccc(Cl)c(NC(=O)CSc2n[nH]c(N)n2)c1
CC50 [9]: 44.2 µM (active) | IC50 (cells [6]): 7.78 µM (active)

Cc1nn(-c2nc3ccccc3s2)c(C)c1Oc1ccccc1O
CC50 [9]: 20.6 µM (active) | AC50 [10]: 5.5 µM (active) | IC50 (Vero [11]): 11.7 µM (active) | CC50 (Vero [12]): > 25 µM (active) | Ki (fMet-Leu-Phe receptor): > 66.7 µM (inactive) | IC50 (cells [6]): 15.6 µM (active)

CC(=O)c1ccc(C(=O)Nc2nnc(-c3ccc(Cl)cc3)o2)cc1
CC50 [13]: 7.9 µM (active) | CC50 [14]: 13.1 µM (active) | CC50 [15]: 8.62 µM (active) | IC50 (cells [16]): 0.47 µM (active) | IC50 (H9c2): > 79 µM (inactive)

Cn1c(C(=O)NCc2cccs2)cc2oc3ccccc3c21
CC50 [9]: 3.9 µM (active) | EC50 [17]: > 120 µM (not active) | EC50 [18]: 2.92 µM (active) | EC50 (H4): > 120 µM (not active) | IC50 (Vero [11]): 1.32 µM (active) | CC50 (Vero [12]): > 25 µM (active) | IC50 (cells [6]): 18.4 µM (active)

O=C1C2CC=C(Cl)CC2C(=O)N1CCCCCCN1C(=O)C2CC=C(Cl)CC2C1=O (stereo not given)
IC50 (Leucine aminopeptidase): 37.2 µM (active) | EC50 [19]: 14.4 µM (active) | EC50 [20]: 12.2 µM (active) | IC50 (Estrogen receptor): 24.7 µM (active)
